The values that follow come from patent US12181473B2 (priority 2017, dated 2024).

For this test, the system named is fumonisin B1 monoclonal antibody secreted from the hybridoma cell line Fm7A11. Type of test: binding, BALB/c mice.

Molecules are shown by their SMILES.

Consider `CCCC[C@@H](C)[C@@H](OC(=O)C[C@@H](CC(=O)O)C(=O)O)[C@H](C[C@@H](C)CCCCCC[C@@H](O)C[C@H](O)[C@H](C)N)OC(=O)C[C@@H](CC(=O)O)C(=O)O` [fumonisin B2], for which the “Cross rates of response” value was 4.3%. For `CCCC[C@@H](C)[C@@H](OC(=O)C[C@@H](CC(=O)O)C(=O)O)[C@H](C[C@@H](C)C[C@H](O)CCCC[C@@H](O)C[C@H](O)[C@H](C)N)OC(=O)C[C@@H](CC(=O)O)C(=O)O` [fumonisin B1], the “sensitivity (IC50, concentration of competitive antigen at 50% suppression ratio)” value was 0.32 ng/mL. On to `CCCC[C@@H](C)[C@@H](OC(=O)C[C@@H](CC(=O)O)C(=O)O)[C@H](C[C@@H](C)C[C@H](O)CCCCCC[C@H](O)[C@H](C)N)OC(=O)C[C@@H](CC(=O)O)C(=O)O` [fumonisin B3], for which the “Cross rates of response” value amounted to 12.8%.
